From PubChem BioAssay (NCI) come the findings set out here.

Several values for one entry are separate records, joined by “and”; a condition that tells them apart may be missing. Equal values may be shown once.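 Five concentrations, 48 hours, 96-well plates. The concentration for 50% growth inhibition is given as GI50. TGI marks complete inhibition of growth.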

Test systems include DU-145 prostate; MDA-MB-435; MDA-N; DLD-1 colon; DMS 114 small cell lung; KM20L2 colon.
Common to all, as to assay: inhibition of tumour cell growth, NCI panel, 48 h

Take `CCOC(=O)CCc1cc(=O)oc2cc(O)cc(O)c12`: the TGI with DU-145 prostate, in the assay on MDA-MB-435 and in the assay on MDA-N was more than 100 µM throughout.

As for `O=C1c2c(c3c4ccccc4n(CCCCCCBr)c3c3[nH]c4ccccc4c23)C(=O)N1O`, in the assay with DU-145 prostate, the GI50 is 4.01 µM and the TGI stood at 15.2 µM. Moreover, in the assay on MDA-MB-435, the GI50 is 1.98 µM and the TGI came to 4.97 µM.

Regarding `Cc1ccc(S(=O)(=O)N(CCOc2ccc(/C(N)=N/Cl)cc2)CCOc2ccc(/C(N)=N\Cl)cc2)cc1`, the values for the GI50 with DU-145 prostate and in the assay on MDA-MB-435 were 16.1 µM and 21.8 µM, respectively. The TGI in the assay with DU-145 prostate is 48 µM; in the assay with MDA-MB-435, more than 100 µM.

As to `N#C/C(=C/c1ccsc1)C(=O)c1ccccc1`, the TGI in the assay with DLD-1 colon, in the assay on DMS 114 small cell lung and in the assay with KM20L2 colon was more than 100 µM in each case.

For the molecule `CCCCNC1=C(C(=O)OCC)C(=O)CO1`, the TGI in the assay on DLD-1 colon, in the assay on DMS 114 small cell lung and in the assay on KM20L2 colon was more than 100 µM each time.

`COC(=O)c1cc2c3ccccc3[nH]c2c2ncccc12`: in the assay on DU-145 prostate, the GI50 is 47.1 µM and the TGI was more than 100 µM. For the same molecule, in the assay with MDA-MB-435, the GI50 is more than 100 µM and the TGI was more than 100 µM.

In the case of `CCOC(=O)/C=C(/C(=O)OCC)n1cc(Cl)c(=O)n(CC(=O)OCC)c1=O`, the TGI in the assay on DU-145 prostate is 8.47 µM and 31.3 µM; with MDA-MB-435, 9.95 µM and 36.6 µM; in the assay with MDA-N it was 11.9 µM and 31.4 µM. In the assay on MDA-N, the GI50 was 16.4 µM.

Consider `CSc1ccc(C2=NN(C(C)=O)C(c3cc(C)cs3)C2)cc1` (stereo not drawn), for which, in the assay on DU-145 prostate, the GI50 was 34.6 µM and the TGI was more than 100 µM. In addition, in the assay on MDA-MB-435, the GI50 was 23.4 µM and the TGI was more than 100 µM.

On to `CCCCC/C(C=C(C#N)C#N)=C/c1ccccc1`, for which, in the assay with DU-145 prostate, the GI50 is 5.23 µM and the TGI was found to be 24.6 µM. Also, in the assay with MDA-MB-435, the GI50 was 1.77 µM and the TGI came out at 4.11 µM.

Turning to `COc1ccc2c(c1)c(-c1nc(-c3cn(C)c4ncccc34)cs1)cn2CCCN1CCCCC1`, the GI50 was 1.62 µM with DU-145 prostate and 1.63 µM in the assay with MDA-MB-435. The results for the TGI with DU-145 prostate and with MDA-MB-435 were 2.98 µM and 3.03 µM, respectively.

In the case of `COC(=O)CCCCN=Cc1c(O)c(O)c(C(C)C)c2cc(C)c(-c3c(C)cc4c(C(C)C)c(O)c(O)c(C=NCCCCC(=O)OC)c4c3O)c(O)c12`, in the assay with DU-145 prostate, the GI50 is 1.39 µM and the TGI was more than 32.5 µM. For the same molecule, in the assay with MDA-MB-435, the GI50 was 1.46 µM and the TGI was more than 32.5 µM.

Consider `CC1OC(n2cc(F)c(=O)[nH]c2=O)CCC1O` (stereo not drawn), for which the TGI in the assay on DLD-1 colon, in the assay on DU-145 prostate, with KM20L2 colon, in the assay with MDA-MB-435 and in the assay on MDA-N was more than 100 µM throughout.

Consider `N#C/C(=C1C=C/C(=N/O)C(Br)=C/1)c1ccccc1`, for which the GI50 in the assay on DU-145 prostate was 3.24 µM; with MDA-MB-435 it was 0.495 µM. For the same molecule, the TGI is 9.69 µM in the assay with DU-145 prostate and 2.32 µM with MDA-MB-435.

Turning to `CC1OC(O[C@H]2C[C@@H](O)[C@]3(CO)[C@H]4[C@H](O)C[C@]5(C)[C@@H](C6=CC(=O)OC6)CC[C@]5(O)[C@@H]4CC[C@]3(O)C2)C(O)C(O)C1O` (stereo partly drawn), the GI50 with DU-145 prostate was 19.3 µM; with MDA-MB-435, 19.5 µM; in the assay with MDA-N it was 18.8 µM. In addition, the TGI worked out at 34 µM with DU-145 prostate, 38.6 µM with MDA-MB-435 and 33.7 µM with MDA-N.

As for `O=C1/C(=C/c2ccc(Br)cc2)C=C(c2ccccc2)N1CCc1ccccc1`, in the assay on DU-145 prostate, the GI50 was 2.54 µM and the TGI was found to be 15.8 µM. Further, in the assay on MDA-MB-435, the GI50 is 8.38 µM and the TGI was more than 100 µM.

Consider `O=C(NCCOCCOCCNc1cccc2c1C(=O)N(C1CCCNC1=O)C2=O)c1cc2c(o1)C(=O)c1ccccc1C2=O` (stereo not drawn), for which the GI50 in the assay with DU-145 prostate is 1.69 µM; with MDA-MB-435, 1.62 µM. Moreover, the results for the TGI in the assay with DU-145 prostate and in the assay with MDA-MB-435 were 3.11 µM and 3.05 µM, respectively.

Take `O=C(CN1CCOCC1)Nc1ccc(Cn2nnc3c2C(=O)c2nnn(Cc4ccc(NC(=O)CN5CCOCC5)cc4)c2C3=O)cc1`: the GI50 in the assay on DU-145 prostate was 1.38 µM; with MDA-MB-435 it was 0.177 µM. Further, the TGI in the assay with DU-145 prostate is 2.7 µM; with MDA-MB-435, 0.329 µM.

As for `O=C1/C(=C/c2ccc(Cl)cc2Cl)N=C(c2ccccc2)N1Cc1ccco1`, in the assay with DU-145 prostate, the GI50 was 21.1 µM and the TGI stood at 51 µM. In the assay with MDA-MB-435, the GI50 was 43.6 µM and the TGI was more than 100 µM.

As to `COc1ccc(/C(=C2\O[C@@H]([C@H]3COC(C)(C)O3)[C@H]3OC(C)(C)O[C@@H]23)c2cc(OC)c(OC)c(OC)c2)cc1O`, in the assay on DU-145 prostate, the GI50 is 3.29 µM and the TGI came out at 13.3 µM.

Take `CCCCC(=O)OCC1OC(n2cnc3c(=S)nc[nH]c32)C(OC(=O)CCCC)C1OC(=O)CCCC` (stereo not drawn): the GI50 with DU-145 prostate is 0.636 µM; in the assay with MDA-MB-435 it was 2.21 µM. The TGI in the assay with DU-145 prostate and in the assay on MDA-MB-435 was more than 100 µM throughout.

On to `COc1cc(C2c3cc4c(cc3C(NCC(O)CO)C3COC(=O)[C@H]23)OCO4)cc(OC)c1OC` (stereo partly drawn), for which the TGI with DLD-1 colon was more than 100 µM; in the assay with DMS 114 small cell lung it was 0.245 µM.

As to `O=c1oc2ccc(F)cc2c(=O)n1-c1ccc(F)cc1F`, the GI50 was 4.18 µM with DU-145 prostate and 3.21 µM in the assay with MDA-MB-435. Besides, the values for the TGI with DU-145 prostate and in the assay with MDA-MB-435 were more than 100 µM and 14.6 µM, respectively.

On to `CC1CCC2(C(=O)O)CCC3(C)C(=CCC4C5(C)CC(O)C(O)C(C)(CO)C5C(O)CC43C)C2C1C` (stereo not drawn), for which the TGI was more than 100 µM in the assay with DU-145 prostate, more than 100 µM in the assay on MDA-MB-435 and more than 57.6 µM in the assay with MDA-N.

Take `OCCC1(O)CCC(O)CC1` (stereo not drawn): the TGI in the assay on DLD-1 colon and in the assay on DMS 114 small cell lung was more than 100 µM in each case.

Regarding `Cn1c(N2NC(=O)C(N=Nc3ccc(S(N)(=O)=O)cc3)C2=O)nc(-c2ccco2)c(C#N)c1=O` (stereo not drawn), in the assay on DU-145 prostate, the GI50 is 14.9 µM and the TGI was more than 50 µM. Moreover, in the assay with MDA-MB-435, the GI50 was 32.3 µM and the TGI was more than 50 µM.

For the molecule `N#CC(C(=N/O)/C(=N/O)C(C#N)c1ccc(Cl)cc1)c1ccc(Cl)cc1` (stereo not drawn), the TGI in the assay with DLD-1 colon, with DMS 114 small cell lung and in the assay on KM20L2 colon was more than 100 µM throughout.

`Cc1cc2c(cc1C)[n+](=O)c(C(=O)CC(=O)C(=O)Nc1c(C(C)C)cccc1C(C)C)c(C)n2[O-]`: the TGI with DMS 114 small cell lung and in the assay with KM20L2 colon was more than 100 µM throughout.
